The text below walks through data of ChEMBL document CHEMBL5365427, “Discovery and Structural Optimization of Covalent ZAP-70 Kinase Inhibitors against Psoriasis” (J Med Chem, 2023).

The source made the active and inactive calls. The rule behind the calls is not given here.

Assay [1] deals with Splenocyte. Kind of assay: Immunosuppressive activity in BALB/c mouse Splenocyte assessed as reduction in frequency of CD25 positive CD4 positive T cells at 100 to 400 nM incubated for 48 hrs by flow cytometry analysis. The format is functional, cell-based. The conditions noted are these: dose 100-400 nM.
Assay [2] deals with Tyrosine-protein kinase SYK (Homo sapiens, UniProt P43405). Nature of the assay: Inhibition of SYK (unknown origin) using ULight-TK peptide as substrate at 1 uM incubated for 120 mins in presence of ATP by Lance Ultra Kinase assay relative to control.
Assay [3] has as its system Splenocyte. Kind of assay: Immunosuppressive activity in BALB/c mouse Splenocyte assessed as reduction in frequency of CD69 positive CD4 positive T cells at 400 nM incubated for 48 hrs by flow cytometry analysis (reference value: 21.3%). It counts as functional. Also noted: scale not given: the % may be the effect or the level left.
For assay [4], the system named is Splenocyte. Nature of the assay: Immunosuppressive activity in LPS-induced BALB/c mouse Splenocyte assessed as effect on CD69 expression at 100 to 400 nM incubated for 48 hrs by flow cytometry analysis. The format is functional, cell-based. The conditions noted are these: dose 100-400 nM.
For assay [5], the system named is Splenocyte. Nature of the assay: Immunosuppressive activity in anti-CD3/CD28 stimulated BALB/c mouse Splenocyte assessed as reduction in IFN-gamma cytokine level incubated for 48 hrs by ELISA assay. The format is functional, cell-based.
Assay [6] deals with Mus musculus. Nature of the assay: Anti-inflammatory activity in imiquimod-induced BALB/c mouse psoriasis model assessed as decrease in clinical sign of psoriasis in skin at TOP administration, 2 % applied for 7 days. The format is functional, organism-based. The conditions noted are these: time 7.0 day.
In assay [7] the test system is Mus musculus. Nature of the assay: Anti-inflammatory activity in imiquimod-induced BALB/c mouse psoriasis model assessed as decrease in splenomegaly at TOP administration, 2 % applied for 7 days. The format is functional, organism-based. The conditions noted are these: time 7.0 day.
The test system of assay [8] is Mus musculus. Nature of the assay: Anti-inflammatory activity in imiquimod-induced BALB/c mouse psoriasis model assessed as reduction in skin inflammation at TOP administration, 2 % applied for 7 days. The format is functional, organism-based. The conditions noted are these: time 7.0 day.
The subject of assay [9] is Mus musculus. Nature of the assay: Anti-inflammatory activity in imiquimod-induced BALB/c mouse psoriasis model assessed as […] in skin thickness at TOP administration, 2 % applied for 7 days by hematoxylin and eosin staining based assay. It counts as functional, organism-based. The conditions noted are these: time 7.0 day.
Assay [10] addresses Tyrosine-protein kinase receptor UFO (Homo sapiens) (UniProt P30530). Kind of assay: Inhibition of AXL (unknown origin) at 1 uM relative to control.
In assay [11] the target is Mitogen-activated protein kinase 9 (Homo sapiens) (UniProt P45984). Kind of assay: Inhibition of JNK2 (unknown origin) at 1 uM relative to control.
Assay [12] concerns the target Mitogen-activated protein kinase 10 (Homo sapiens) (UniProt P53779). Nature of the assay: Inhibition of JNK3 (unknown origin) at 1 uM relative to control.
The target of assay [13] is T1, Serine/threonine-protein kinase PLK4 (Homo sapiens) (UniProt O00444).
T1 sequence (whole entry): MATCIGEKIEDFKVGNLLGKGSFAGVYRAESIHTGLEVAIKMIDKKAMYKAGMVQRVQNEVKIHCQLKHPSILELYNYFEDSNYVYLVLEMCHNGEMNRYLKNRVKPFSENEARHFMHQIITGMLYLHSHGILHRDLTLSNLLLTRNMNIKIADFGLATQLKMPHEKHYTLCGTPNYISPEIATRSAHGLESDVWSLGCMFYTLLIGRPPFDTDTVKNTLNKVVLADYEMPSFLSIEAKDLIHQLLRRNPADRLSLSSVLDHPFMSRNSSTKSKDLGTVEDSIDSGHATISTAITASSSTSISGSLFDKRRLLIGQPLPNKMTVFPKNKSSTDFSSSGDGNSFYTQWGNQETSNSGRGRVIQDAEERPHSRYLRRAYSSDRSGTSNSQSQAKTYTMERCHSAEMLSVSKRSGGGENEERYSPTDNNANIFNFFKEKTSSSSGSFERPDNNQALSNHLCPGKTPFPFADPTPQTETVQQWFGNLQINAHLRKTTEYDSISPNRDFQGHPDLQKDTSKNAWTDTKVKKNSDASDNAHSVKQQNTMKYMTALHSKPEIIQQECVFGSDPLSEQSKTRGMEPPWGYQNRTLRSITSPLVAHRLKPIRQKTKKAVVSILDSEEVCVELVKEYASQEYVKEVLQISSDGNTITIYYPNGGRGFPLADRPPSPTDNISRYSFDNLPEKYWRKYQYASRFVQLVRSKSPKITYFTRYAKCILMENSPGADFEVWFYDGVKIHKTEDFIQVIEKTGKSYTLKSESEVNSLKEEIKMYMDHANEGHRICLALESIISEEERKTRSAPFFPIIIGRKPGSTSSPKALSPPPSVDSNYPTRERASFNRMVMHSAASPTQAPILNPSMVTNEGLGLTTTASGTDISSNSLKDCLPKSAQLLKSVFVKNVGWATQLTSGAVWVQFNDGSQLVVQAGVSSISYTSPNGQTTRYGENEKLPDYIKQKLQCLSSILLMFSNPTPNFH
Kind of assay: Inhibition of PLK4 (unknown origin) at 1 uM relative to control.

In assay [14] the target is T2, Tyrosine-protein kinase ZAP-70 (Homo sapiens) (UniProt P43403).
T2 sequence (whole entry): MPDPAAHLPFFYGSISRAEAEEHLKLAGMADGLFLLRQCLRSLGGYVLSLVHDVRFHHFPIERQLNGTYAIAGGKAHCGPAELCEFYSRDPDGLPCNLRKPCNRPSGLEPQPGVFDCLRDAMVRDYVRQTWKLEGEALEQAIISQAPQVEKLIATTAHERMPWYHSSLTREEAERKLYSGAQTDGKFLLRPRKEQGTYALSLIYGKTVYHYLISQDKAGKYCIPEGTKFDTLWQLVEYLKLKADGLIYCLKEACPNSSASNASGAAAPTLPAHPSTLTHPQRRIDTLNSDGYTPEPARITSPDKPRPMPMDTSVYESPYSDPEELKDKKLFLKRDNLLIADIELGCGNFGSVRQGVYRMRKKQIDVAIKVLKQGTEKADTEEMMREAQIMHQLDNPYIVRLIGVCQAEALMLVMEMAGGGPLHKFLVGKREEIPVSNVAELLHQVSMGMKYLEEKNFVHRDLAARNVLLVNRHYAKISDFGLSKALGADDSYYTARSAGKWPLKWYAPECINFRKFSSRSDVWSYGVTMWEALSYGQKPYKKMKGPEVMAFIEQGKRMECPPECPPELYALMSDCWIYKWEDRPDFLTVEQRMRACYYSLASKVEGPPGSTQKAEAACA
Kind of assay: Inhibition of ZAP-70 (unknown origin) at 1 uM relative to control.

Sequence of Tyrosine-protein kinase receptor UFO (Homo sapiens) (P30530 whole entry): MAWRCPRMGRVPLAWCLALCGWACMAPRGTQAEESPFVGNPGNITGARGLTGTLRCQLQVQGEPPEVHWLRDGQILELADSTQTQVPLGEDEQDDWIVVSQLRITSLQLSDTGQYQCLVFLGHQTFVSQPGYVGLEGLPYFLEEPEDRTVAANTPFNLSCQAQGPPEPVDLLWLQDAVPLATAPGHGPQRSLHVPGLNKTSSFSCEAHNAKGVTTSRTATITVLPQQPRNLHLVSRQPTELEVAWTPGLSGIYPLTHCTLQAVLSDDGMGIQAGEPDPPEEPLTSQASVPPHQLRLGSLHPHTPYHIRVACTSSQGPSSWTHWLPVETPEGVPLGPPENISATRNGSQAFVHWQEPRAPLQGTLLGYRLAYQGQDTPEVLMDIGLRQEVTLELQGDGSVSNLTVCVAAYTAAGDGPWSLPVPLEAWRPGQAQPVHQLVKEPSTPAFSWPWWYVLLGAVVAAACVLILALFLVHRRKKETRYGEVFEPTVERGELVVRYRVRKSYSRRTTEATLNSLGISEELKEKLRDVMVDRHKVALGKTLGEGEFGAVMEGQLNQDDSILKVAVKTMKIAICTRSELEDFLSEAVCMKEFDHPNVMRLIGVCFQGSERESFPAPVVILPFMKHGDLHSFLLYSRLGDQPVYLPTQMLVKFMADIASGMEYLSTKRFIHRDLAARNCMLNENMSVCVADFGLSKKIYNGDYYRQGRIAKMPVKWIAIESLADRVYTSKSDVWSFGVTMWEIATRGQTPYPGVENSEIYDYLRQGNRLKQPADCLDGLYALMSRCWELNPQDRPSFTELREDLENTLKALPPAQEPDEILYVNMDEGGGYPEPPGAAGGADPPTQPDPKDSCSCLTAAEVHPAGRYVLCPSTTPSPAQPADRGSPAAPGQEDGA
Sequence of Mitogen-activated protein kinase 9 (Homo sapiens) (P45984 whole entry, looked up): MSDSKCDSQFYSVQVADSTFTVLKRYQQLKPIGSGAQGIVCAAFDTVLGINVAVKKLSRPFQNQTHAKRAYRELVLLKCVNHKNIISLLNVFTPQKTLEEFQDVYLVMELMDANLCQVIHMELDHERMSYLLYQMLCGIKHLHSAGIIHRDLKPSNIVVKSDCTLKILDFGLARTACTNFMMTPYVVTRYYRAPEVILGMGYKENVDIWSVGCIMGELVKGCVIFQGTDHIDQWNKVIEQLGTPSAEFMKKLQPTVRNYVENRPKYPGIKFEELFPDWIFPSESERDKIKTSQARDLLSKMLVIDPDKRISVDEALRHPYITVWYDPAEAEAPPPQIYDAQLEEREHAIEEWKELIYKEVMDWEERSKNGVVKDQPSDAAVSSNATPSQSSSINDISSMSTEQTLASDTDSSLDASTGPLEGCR
Sequence of Mitogen-activated protein kinase 10 (Homo sapiens) (P53779 whole entry): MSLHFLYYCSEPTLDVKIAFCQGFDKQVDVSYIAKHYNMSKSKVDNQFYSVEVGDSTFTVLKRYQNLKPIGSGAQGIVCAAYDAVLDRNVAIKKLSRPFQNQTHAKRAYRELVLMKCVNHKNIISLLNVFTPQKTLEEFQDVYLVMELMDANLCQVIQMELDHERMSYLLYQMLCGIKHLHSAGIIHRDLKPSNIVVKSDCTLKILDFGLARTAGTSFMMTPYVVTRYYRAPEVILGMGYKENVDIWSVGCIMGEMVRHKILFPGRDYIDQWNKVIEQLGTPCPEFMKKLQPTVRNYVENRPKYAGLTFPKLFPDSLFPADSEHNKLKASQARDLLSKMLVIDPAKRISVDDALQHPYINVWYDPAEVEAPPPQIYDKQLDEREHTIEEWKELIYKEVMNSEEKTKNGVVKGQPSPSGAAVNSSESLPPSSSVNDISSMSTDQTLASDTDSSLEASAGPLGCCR

For the molecule `C=CC(=O)Nc1cc(CNc2nc(Nc3ccc(N4CCOCC4)c(OC)c3)c(C(N)=O)c3nccn23)ccc1Cl`, the outcome in the assay on Splenocyte [1], with Mus musculus [6], with Mus musculus [7], in the assay on Mus musculus [8] and in the assay with Mus musculus [9] was Active. For the same molecule, the inhibition in assay [2] is 72.5%; in assay [10], greater than 90%; in assay [11], greater than 90%; in assay [12] it was greater than 90%; in [13], greater than 90%; in assay [14] it was 98.3%. Further, the Activity was 10.8% in the assay on Splenocyte [3] and “Dose-Dependent Effect” in the assay with Splenocyte [5]. Moreover, the outcome with Splenocyte [4] was inactive.
